# In patent publication US8008506B2, “Indazole compounds” (priority 2008, dated 2011):
# Where two headings read alike, the source gives them in different places.
# How the values were obtained:
# Type in all cases: cell-based
# [1] = biological target: T1, human β3 adrenergic receptor (Homo sapiens, UniProt P13945); experiment: Test Example 1-B: human β3 adrenergic receptor agonist activity (cAMP-Screen kit, transfected CHO cells, 96-well); conditions: for Emax: CHO, read-out: β3 receptor I.A.; for EC50: Table 2, Test Example 1-B
# T1 construct: the full length human β3 gene is obtained from a human genomic library; expressed in transfected cells; host or cells: CHO (Chinese Hamster Ovary) cells, pcDNA3, geneticin selection
# Protocol: Measurement of Human β3 Adrenergic Receptor Agonist Activity
# (§1) The measurement of human β3 adrenergic receptor agonist activity is carried out using CHO (Chinese Hamster Ovary) cells transfected with pcDNA3 (manufactured by Invitrogen, Inc.) to which human β3 gene has been inserted. […] This human β3 cDNA fragment is used as a probe, and the full length human β3 gene is obtained from a human genomic library (manufactured by Clontech Laboratories, Inc.). The above cells are cultured in Ham's F-12 medium containing 10% fetal bovine serum and 400 μg/ml geneticin (manufactured by Invitrogen, Inc.). These cells are seeded on a 96-well plate to a concentration of 2×10^4 cells/well, and after being cultured for about 20 hours, the cells are left to stand in 80 μL of serum-free Ham's F-12 medium for 15 minutes. A test compound is initially dissolved in DMSO, and then is diluted stepwise with Ham's F-12 containing 100 mmol/L HEPES and 1 mmol/L isobutylmethylxanthine. 20 μL of the dilution is added to the cells. After the cells are cultured for 30 minutes, the medium is removed. 0.3. ml of the Assay/lysis Buffer included in cAMP-Screen kit (manufactured by Applied Biosystems, Inc.) is added to the cells, and the cells are incubated at 37° C. for 30 minutes. The resulting cell lysate is subjected to quantification of cAMP with the cAMP-Screen kit.
# [2] = biological target: T2, human β2 adrenergic receptor (Homo sapiens, UniProt P07550); experiment: Test Example 3-B: human β2 adrenergic receptor agonist activity (method of Test Example 1-B); conditions: for β2 receptor EC50: Table 2, Test Example 3-B; for Emax: read-out: β2 receptor I.A.
# T2 construct: expressed in transfected cells; host or cells: CHO (Chinese Hamster Ovary) cells, pcDNA3
# Protocol: [Worded in the source for another target; this target is reported under the same test.] as §1, with “kit. […] Measurement of Human β2 Adrenergic Receptor Agonist Activity” for “kit.”
# [3] = biological target: T3, human α1A adrenergic receptor (Homo sapiens, UniProt P35348); experiment: Test Example 4: human α1A adrenergic receptor agonist activity (Ca flux, Fura-2, transfected HEK293 cells); conditions: for Emax: HEK293, read-out: α1A receptor I.A.
# T3 construct: expressed in transfected cells; host or cells: HEK293 cells, pcDNA3.1(−), hygromycin B selection
# T3 sequence (P35348 1-466): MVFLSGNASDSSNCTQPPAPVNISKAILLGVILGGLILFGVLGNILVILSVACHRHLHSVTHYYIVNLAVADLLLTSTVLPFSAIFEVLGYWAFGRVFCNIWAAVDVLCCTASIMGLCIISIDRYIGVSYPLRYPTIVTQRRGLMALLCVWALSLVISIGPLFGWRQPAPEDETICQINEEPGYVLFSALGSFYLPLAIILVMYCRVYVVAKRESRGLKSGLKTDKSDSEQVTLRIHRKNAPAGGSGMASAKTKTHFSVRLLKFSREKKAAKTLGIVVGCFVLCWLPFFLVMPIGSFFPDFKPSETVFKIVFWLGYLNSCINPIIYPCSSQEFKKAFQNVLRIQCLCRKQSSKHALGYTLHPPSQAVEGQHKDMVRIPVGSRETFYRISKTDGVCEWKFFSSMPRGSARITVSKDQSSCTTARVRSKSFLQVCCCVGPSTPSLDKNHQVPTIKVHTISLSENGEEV
# Protocol: Measurement of Human α1A Adrenergic Receptor Agonist Activity
# The measurement of human α1A adrenergic receptor agonist activity is carried out using HEK293 cells transfected with pcDNA3.1(−) (manufactured by Invitrogen, Inc.) to which human α1A gene has been inserted. These cells are cultured in DMEM medium containing 10% fetal bovine serum, 400 μg/ml hygromycin B (manufactured by Gibco BRL), 100 U/ml penicillin and 100 μg/ml streptomycin. […] The cells are loaded in a CO2 incubator for 30 minutes, and then are washed twice with the Assay Buffer to remove excess Fura-2AM. The cells are centrifuged, and then are prepared into a solution at 5×10^6 cells/ml with the Assay Buffer. Subsequently, the cells are dispensed on a 96-well plate (manufactured by Corning, Inc.) at a volume of 80 μl/well, and the plate is used as a cell plate. […] Subsequently, measurement of fluorescence intensity (excitation wavelength 340 nm and 380 nm, measurement wavelength 500 nm) is initiated at an interval of 2 seconds. After making measurements for about 30 seconds, 20 μl of the test sample from the sample plate is added to the cell plate, and measurements are further continued for 270 seconds. The Ca flux resulting from the test compound is calculated utilizing the difference between the maximum value of fluorescence intensity ratio at the wavelengths 340 nm and 380 nm after the addition of the test compound, and the fluorescence intensity ratio before the addition of the test compound, as the peak height.
# [4] = biological target: T4, human β1 adrenergic receptor (Homo sapiens, UniProt P08588); experiment: Test Example 2-B: human β1 adrenergic receptor agonist activity (method of Test Example 1-B); conditions: for β1 receptor EC50: Table 2, Test Example 2-B; for Emax: read-out: β1 receptor I.A.
# T4 construct: expressed in transfected cells; host or cells: CHO (Chinese Hamster Ovary) cells, pcDNA3
# Protocol: as §1, with “kit. […] Measurement of Human β1 Adrenergic Receptor Agonist Activity” for “kit.”
# [5] = Table 2, Test Example 4, read-out: α1A receptor EC50
# T2 sequence (P07550 whole entry): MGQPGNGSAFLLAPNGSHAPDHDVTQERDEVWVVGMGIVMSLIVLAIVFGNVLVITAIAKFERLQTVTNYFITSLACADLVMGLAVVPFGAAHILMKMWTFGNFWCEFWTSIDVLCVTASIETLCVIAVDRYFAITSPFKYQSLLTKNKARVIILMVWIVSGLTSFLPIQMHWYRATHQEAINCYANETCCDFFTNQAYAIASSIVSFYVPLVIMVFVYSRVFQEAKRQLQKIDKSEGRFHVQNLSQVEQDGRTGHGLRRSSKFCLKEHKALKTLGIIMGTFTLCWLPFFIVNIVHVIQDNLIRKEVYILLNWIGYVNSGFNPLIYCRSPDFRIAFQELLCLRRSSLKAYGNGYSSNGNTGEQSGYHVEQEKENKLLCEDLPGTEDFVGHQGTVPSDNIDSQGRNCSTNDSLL
# T1 sequence (P13945 whole entry): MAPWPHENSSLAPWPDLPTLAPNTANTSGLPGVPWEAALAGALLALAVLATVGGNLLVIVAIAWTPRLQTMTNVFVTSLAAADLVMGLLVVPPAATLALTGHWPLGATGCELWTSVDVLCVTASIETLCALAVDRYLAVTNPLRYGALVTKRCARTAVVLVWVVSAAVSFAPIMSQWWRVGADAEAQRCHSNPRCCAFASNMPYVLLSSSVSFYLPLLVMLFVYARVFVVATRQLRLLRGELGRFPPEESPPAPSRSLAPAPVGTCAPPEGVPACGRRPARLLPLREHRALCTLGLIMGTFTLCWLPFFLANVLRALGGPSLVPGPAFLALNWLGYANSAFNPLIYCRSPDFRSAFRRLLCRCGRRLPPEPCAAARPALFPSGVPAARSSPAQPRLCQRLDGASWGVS
# T4 sequence (P08588 whole entry): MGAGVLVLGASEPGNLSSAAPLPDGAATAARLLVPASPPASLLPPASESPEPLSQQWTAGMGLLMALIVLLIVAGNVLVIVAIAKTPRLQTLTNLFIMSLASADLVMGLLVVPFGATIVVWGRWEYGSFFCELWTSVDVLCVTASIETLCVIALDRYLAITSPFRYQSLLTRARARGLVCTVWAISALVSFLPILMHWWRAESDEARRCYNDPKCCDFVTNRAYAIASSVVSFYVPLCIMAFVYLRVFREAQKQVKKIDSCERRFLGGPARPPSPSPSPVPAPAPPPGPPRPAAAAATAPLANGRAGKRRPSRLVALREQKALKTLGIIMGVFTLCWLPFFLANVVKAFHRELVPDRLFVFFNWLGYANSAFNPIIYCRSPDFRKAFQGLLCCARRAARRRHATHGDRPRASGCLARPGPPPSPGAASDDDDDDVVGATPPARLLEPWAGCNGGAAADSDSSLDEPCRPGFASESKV
SMILES,Emax [1] [%],EC50 [1] [nM],β2 receptor EC50 [2],Emax [2] [%],Emax [3] [%],"EC50 [3, 5] [nM]",β1 receptor EC50 [4],Emax [4] [%],EC50 [3] [nM],"α1A receptor I.A. ([3]; Table 2, maximum response to norepinephrine taken as 100%) [%]"
"CC(C)c1n[nH]c2cc(OCCNC[C@H](O)c3ccc(Cl)c(NS(C)(=O)=O)c3)ccc12 [Example 7, (R)-N-(2-chloro-5-(1-hydroxy-2-(2-(3-isopropylindazol-6-yloxy)ethylamino)ethyl)phenyl)methanesulfonamide]",65,13,a),8,0,> 2000,a),22,–,–
"CS(=O)(=O)Nc1cc([C@@H](O)CNCCOc2ccc3c(C(F)(F)F)n[nH]c3c2)ccc1F [Example 10, (R)-N-(2-fluoro-5-(1-hydroxy-2-(2-(3-(trifluoromethyl)indazol-6-yloxy)ethylamino)ethyl)phenyl)methanesulfonamide]",53,41,a),3,15,1290,a),8,–,–
"Cc1n[nH]c2cc(OCCNC[C@H](O)c3cccc(NS(=O)(=O)C(C)C)c3)ccc12 [Example 12, (R)-N-(3-(1-hydroxy-2-(2-(3-methylindazol-6-yloxy)ethylamino)ethyl)phenyl)propane-2-sulfonamide]",84,84,a),2,34,–,b),-1,1310,–
"CCc1n[nH]c2cc(OCCNC[C@H](O)c3cccc(NS(=O)(=O)C(C)C)c3)ccc12 [Example 13, (R)-N-(3-(2-(2-(3-ethylindazol-6-yloxy)ethylamino)-1-hydroxyethyl)phenyl)propane-2-sulfonamide]",80,47,b),-3,20,> 2000,b),-2,–,–
"Cc1n[nH]c2cc(OCCNC[C@H](O)c3cccc(NS(=O)(=O)c4ccccc4)c3)ccc12 [Example 14, (R)-N-(3-(1-hydroxy-2-(2-(3-methylindazol-6-yloxy)ethylamino)ethyl)phenyl)benzenesulfonamide]",90,10,b),0,0,–,a),16,> 2000,–
"CCc1n[nH]c2cc(OCCNC[C@H](O)c3cccc(NS(=O)(=O)c4ccccc4)c3)ccc12 [Example 15, (R)-N-(3-(2-(2-(3-ethylindazol-6-yloxy)ethylamino)-1-hydroxyethyl)phenyl)benzenesulfonamide]",80,13,b),-3,0,> 2000,a),1,–,–
"CCc1n[nH]c2cc(OCCNC[C@H](O)c3cccc(NS(=O)(=O)CC)c3)ccc12 [Example 20, (R)-N-(3-(2-(2-(3-ethylindazol-6-yloxy)ethylamino)-1-hydroxyethyl)phenyl)ethanesulfonamide]",80,11,a),5,26,488,a),3,–,–
"NC[C@H](O)c1ccc(O)c(O)c1 [Norepinephrine, reference compound]",–,–,–,–,100,–,–,–,–,100
